Measurements reported in patent publication US11951105B2 (Lake O'Hara LLC, priority 2020, dated 2024).

Experiments:
[1] = biological target: CYP3A4 (Homo sapiens, UniProt P08684); settings: based on the literature; cited from earlier work
[2] = brexpiprazole patients; cited from earlier work
[3] = PBPK modeling of schizophrenia patients treated according to modified dosing regimens; set-up: species or system human; settings: for Days Reduced to Reach Pharmacokinetic Endpoints: EC80 / Days Reduced to Reach Pharmacokinetic Endpoints: Steady State: modified regimen of Table F vs FDA label, Obese
Text: In order to simulate brexpiprazole under various conditions, a whole-body PBPK model was constructed to capture the drug's kinetics in major tissues. Model tissue compartments included adipose, bone, brain, large intestine, small intestine, heart, kidney, liver, lung, muscle, spleen, stomach, and skin tissues, as well as venous and arterial blood compartments. In order to accurately capture first-pass clearance effects on the drug, the model also included correct representation of the gastrointestinal tract organs and the liver. […] Drug distribution into each tissue compartment was modeled assuming perfusion-limited kinetics, with partitioning into tissue described by a partition coefficient (Kp) estimated using methods described by Poulin and Theil (2002). Brexpiprazole-specific biochemical parameters such as the log of octanol:water partition coefficient (log P), negative log acid dissociation constant (pKa), fraction unbound in the plasma (fup), blood:plasma concentration ratio (BP), and clearance were obtained from literature; additional physiochemical properties used to calculate Kps were obtained via DrugBank. […] Simulations were carried out in a virtual population of 500 normal-weight and 500 obese individuals with age- and sex-specific physiological parameters (i.e. tissue flows and volumes) sampled from the National Health and Nutrition Examination Survey (NHANES) dataset.
PBPK Modeling of Schizophrenia Patients Treated with Higher Doses According to Modified Methods
A modified dosing regimen was developed so that obese and CYP2D6 PM patients reach therapeutic levels earlier (Table F). […] On day 8, patients returned to administering the recommended dose once daily. […] On day 15, patients returned to administering the recommended dose once daily.

[4] = cited from earlier work
[5] = system: CYP2D6; settings: cited from earlier work

Sequence of CYP3A4 (P08684 whole entry): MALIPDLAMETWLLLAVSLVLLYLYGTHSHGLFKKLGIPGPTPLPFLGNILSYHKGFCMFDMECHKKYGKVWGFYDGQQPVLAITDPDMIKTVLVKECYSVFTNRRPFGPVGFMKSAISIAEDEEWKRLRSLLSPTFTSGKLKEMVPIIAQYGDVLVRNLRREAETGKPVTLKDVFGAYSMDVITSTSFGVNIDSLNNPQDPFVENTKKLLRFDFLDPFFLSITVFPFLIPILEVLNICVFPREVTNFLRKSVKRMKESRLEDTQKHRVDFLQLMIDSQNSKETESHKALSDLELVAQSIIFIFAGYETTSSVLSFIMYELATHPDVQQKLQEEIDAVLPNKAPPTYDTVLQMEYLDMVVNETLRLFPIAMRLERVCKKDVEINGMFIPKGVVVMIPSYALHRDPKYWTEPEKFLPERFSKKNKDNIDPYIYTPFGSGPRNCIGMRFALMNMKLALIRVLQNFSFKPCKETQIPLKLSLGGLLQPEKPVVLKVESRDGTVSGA

## O=c1ccc2ccc(OCCCCN3CCN(c4cccc5sccc45)CC3)cc2[nH]1 [brexpiprazole, 7-{4-[4-(1-Benzothiophen-4-yl)piperazin-1-yl]butoxy}quinolin-2(1H)-one]
[1]
  share of brexpiprazole clearance due to CYP3A4: 46.7%
[2]
  akathisia rates: dose-dependent
[3]; CYP2D6 EM
  Days Reduced to Reach Pharmacokinetic Endpoints: EC80: 3 days
  Days Reduced to Reach Pharmacokinetic Endpoints: Steady State: -4 days
[3]; CYP2D6 PM
  Days Reduced to Reach Pharmacokinetic Endpoints: EC80: 5 days
  Days Reduced to Reach Pharmacokinetic Endpoints: Steady State: -29 days
[3]; schizophrenia, normal-weight CYP2D6 PM, Modified Dosing Regimen 3
  days faster to reach therapeutic concentrations than once daily dosing: three
[3]; schizophrenia, obese CYP2D6 EM, twice the daily doses for the first 7 days (Regimen 1)
  days faster to reach therapeutic concentrations than with FDA label dosing: three
[3]; schizophrenia, obese CYP2D6 PM, twice the daily doses for the first 14 days (Regimen 2)
  days faster to reach therapeutic concentrations than once daily dosing: five
[4]; based on the literature
  share of brexpiprazole clearance due to other routes: 10%
[4]; previous studies
  effect of weight on the pharmacokinetics of brexpiprazole: less than 20%
[4]; share of clearance, model assumption
  renal clearance: ~1%
[5]; CYP2D6 poor metabolizers
  decrease of baseline clearance by CYP2D6 PM status: ~30%
[5]; based on the literature
  share of brexpiprazole clearance due to CYP2D6: 43.3%
